Reference: PubChem BioAssay (NCI)
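Five compound concentrations were applied to cells in 96-well plates for 48 hours; endpoints were derived by simple linear interpolation of the resulting dose-response curve. At the GI50, growth is halved. Definition used: TGI = concentration required for complete inhibition of growth.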

Legend:
Test in all cases: DTP human tumour cell line panel, 48 h
A498 renal = test system: A498 renal
ACHN renal = test system: ACHN renal
BT-549 breast = test system: BT-549 breast
CAKI-1 renal = test system: CAKI-1 renal
CCRF-CEM leukemia = test system: CCRF-CEM leukemia
DU-145 prostate = test system: DU-145 prostate
HCC-2998 colon = test system: HCC-2998 colon
HL-60(TB) leukemia = test system: HL-60(TB) leukemia
HS 578T breast = test system: HS 578T breast
HT29 colon = test system: HT29 colon
K-562 leukemia = test system: K-562 leukemia
KM12 colon = test system: KM12 colon
MALME-3M melanoma = test system: MALME-3M melanoma
MDA-MB-435 = test system: MDA-MB-435
MOLT-4 leukemia = test system: MOLT-4 leukemia
NCI-H460 lung = test system: NCI-H460 lung
OVCAR-3 ovarian = test system: OVCAR-3 ovarian
OVCAR-5 ovarian = test system: OVCAR-5 ovarian
RPMI-8226 leukemia = test system: RPMI-8226 leukemia
SK-MEL-2 melanoma = test system: SK-MEL-2 melanoma
SK-MEL-5 melanoma = test system: SK-MEL-5 melanoma
SN12C renal = test system: SN12C renal
SNB-75 CNS = test system: SNB-75 CNS
SR leukemia = test system: SR leukemia
SW-620 colon = test system: SW-620 colon
T-47D breast = test system: T-47D breast
TK-10 renal = test system: TK-10 renal
UO-31 renal = test system: UO-31 renal

`COc1ccc2[nH]cc(/C=N/Nc3ccnc4cc(Cl)ccc34)c2c1` showed a GI50 (A498 renal) of 1490 nM, a TGI (A498 renal) of 2830 nM and a GI50 (ACHN renal) of 346 nM. It also gave a TGI (ACHN renal) of 1070 nM, a GI50 (BT-549 breast) of 1680 nM and a TGI (BT-549 breast) of 3.09 µM. It also gave a GI50 (CAKI-1 renal) of 1540 nM, a TGI (CAKI-1 renal) of 2910 nM and a GI50 (CCRF-CEM leukemia) of 304 nM. It also gave a TGI (CCRF-CEM leukemia) of 1120 nM, a GI50 (DU-145 prostate) of 729 nM and a TGI (DU-145 prostate) of 1980 nM. It also gave a GI50 (HCC-2998 colon) of 1670 nM, a TGI (HCC-2998 colon) of 3.19 µM and a GI50 (HL-60(TB) leukemia) of 265 nM. The TGI (HL-60(TB) leukemia) was 859 nM, the GI50 (HS 578T breast) was 1990 nM and the TGI (HS 578T breast) was 4.81 µM. The GI50 (HT29 colon) was 219 nM, the TGI (HT29 colon) was 482 nM and the GI50 (K-562 leukemia) was 300 nM. The TGI (K-562 leukemia) was > 100 µM, the GI50 (KM12 colon) was 1650 nM and the TGI (KM12 colon) was 3.92 µM. It also gave a GI50 (MALME-3M melanoma) of 1760 nM, a TGI (MALME-3M melanoma) of 3.22 µM and a GI50 (MDA-MB-435) of 1670 nM. For the same molecule, the TGI (MDA-MB-435) was 3.06 µM, the GI50 (MOLT-4 leukemia) was 265 nM and the TGI (MOLT-4 leukemia) was 713 nM. For the same molecule, the GI50 (NCI-H460 lung) was 202 nM, the TGI (NCI-H460 lung) was 409 nM and the GI50 (OVCAR-3 ovarian) was 1580 nM. The TGI (OVCAR-3 ovarian) was 3.16 µM, the GI50 (OVCAR-5 ovarian) was 1490 nM and the TGI (OVCAR-5 ovarian) was 2840 nM. For the same molecule, the GI50 (RPMI-8226 leukemia) was 271 nM, the TGI (RPMI-8226 leukemia) was 671 nM and the GI50 (SK-MEL-2 melanoma) was 1830 nM. The TGI (SK-MEL-2 melanoma) was 3.48 µM, the GI50 (SK-MEL-5 melanoma) was 1650 nM and the TGI (SK-MEL-5 melanoma) was 3.06 µM. It also gave a GI50 (SN12C renal) of 1600 nM, a TGI (SN12C renal) of 3 µM and a GI50 (SNB-75 CNS) of 1560 nM. It also gave a TGI (SNB-75 CNS) of 2930 nM, a GI50 (SR leukemia) of 171 nM and a TGI (SR leukemia) of 4.14 µM. It also gave a GI50 (SW-620 colon) of 186 nM, a TGI (SW-620 colon) of 379 nM and a GI50 (T-47D breast) of 1280 nM. It also gave a TGI (T-47D breast) of 3.59 µM, a GI50 (TK-10 renal) of 1900 nM and a TGI (TK-10 renal) of 3.35 µM. For the same molecule, the GI50 (UO-31 renal) was 1470 nM and the TGI (UO-31 renal) was 2780 nM.
